Target: T1, TARDBP TAR DNA-binding protein 43 (Homo sapiens, UniProt Q13148)
T1 construct: isoTOP-ABPP experiments performed in cell lysates (in vitro); endogenous in cells; host or cells: soluble proteome of human cancer cell lines (MDA-MB-231, Ramos, Jurkat)
Assay: competitive isoTOP-ABPP
Settings: for R value (DMSO/fragment) for probe 1 labeling: Q13148_K114; for R value (DMSO/fragment) for probe 1 labeling / isoTOP-ABPP reactivity ratio at lysine Q13148_K114 / isoTOP-ABPP ratio (R) at liganded lysine Q13148_K114: 50 uM, in vitro; for R value (DMSO/fragment) for probe 1 labeling / isoTOP-ABPP reactivity ratio at lysine Q13148_K114: 231 sol; for isoTOP-ABPP ratio (R) at liganded lysine Q13148_K114: sol, 231
Procedure, shortened: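 Probe: STP-alkyne, 0.1 mM, 1 h RT, after fragment pretreatment of lysate (esters 50 μM; guanidinylators 100 μM). Tags: light = compound, heavy = DMSO, via CuAAC. Replicates averaged if SD <60% of mean; otherwise lowest ratio used when any R <4.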

T1 sequence (Q13148 whole entry): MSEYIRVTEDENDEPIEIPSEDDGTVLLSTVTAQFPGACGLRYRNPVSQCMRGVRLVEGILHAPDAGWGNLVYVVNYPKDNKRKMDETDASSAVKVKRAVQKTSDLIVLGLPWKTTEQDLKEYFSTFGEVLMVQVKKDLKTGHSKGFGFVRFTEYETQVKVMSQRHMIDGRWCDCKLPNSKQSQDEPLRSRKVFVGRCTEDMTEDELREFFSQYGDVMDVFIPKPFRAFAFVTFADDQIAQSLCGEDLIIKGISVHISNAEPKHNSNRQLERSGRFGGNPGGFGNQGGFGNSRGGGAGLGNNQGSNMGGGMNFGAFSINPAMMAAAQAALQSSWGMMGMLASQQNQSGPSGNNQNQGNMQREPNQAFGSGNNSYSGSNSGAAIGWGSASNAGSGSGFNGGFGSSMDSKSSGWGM

## O=C(Oc1c(F)c(F)c(F)c(F)c1F)c1cc(C(F)(F)F)cc(C(F)(F)F)c1 [fragment 21, Pentafluorophenyl 3,5-bis(trifluoromethyl)benzoate]
  R value (DMSO/fragment) for probe 1 labeling: 0.9

## Cn1cc(CC(=O)Oc2c(F)c(F)c(F)c(F)c2F)c2ccccc21 [fragment 22, Pentafluorophenyl 2-(1-methyl-1H-indol-3-yl)acetate]
  R value (DMSO/fragment) for probe 1 labeling: 0.8

## O=C(Oc1c(F)c(F)c(F)c(F)c1F)C1CCN(C(=O)OCc2ccccc2)CC1 [fragment 24, 1-Benzyl 4-(pentafluorophenyl) piperidine-1,4-dicarboxylate]
  isoTOP-ABPP reactivity ratio at lysine Q13148_K114: 1.0

## O=C(CCc1cn(-c2ccccc2)nc1-c1ccccc1)Oc1ccc([N+](=O)[O-])cc1[N+](=O)[O-] [fragment 29, 2,4-Dinitrophenyl 3-(1,3-diphenyl-1H-pyrazol-4-yl)propanoate]
  isoTOP-ABPP reactivity ratio at lysine Q13148_K114: 1.1

## O=C(CCc1coc2cc(F)ccc2c1=O)Oc1ccc([N+](=O)[O-])cc1[N+](=O)[O-] [fragment 36, 2,4-Dinitrophenyl 3-(7-fluoro-4-oxo-4H-chromen-3-yl)propanoate]
  isoTOP-ABPP ratio (R) at liganded lysine Q13148_K114: 1.2

## O=C(Oc1ccc([N+](=O)[O-])cc1[N+](=O)[O-])c1ccc(-c2ccccc2)cc1 [fragment 37, 2,4-Dinitrophenyl [1,1′-biphenyl]-4-carboxylate]
  isoTOP-ABPP ratio (R) at liganded lysine Q13148_K114: 1.3

## O=C(Oc1ccc([N+](=O)[O-])cc1[N+](=O)[O-])c1ccc(Oc2ccccc2)cc1 [fragment 39, 2,4-Dinitrophenyl 4-phenoxybenzoate]
  isoTOP-ABPP ratio (R) at liganded lysine Q13148_K114: 0.9

## N#Cc1ccc(C(=O)Oc2ccc([N+](=O)[O-])cc2[N+](=O)[O-])cc1 [fragment 44, 2,4-Dinitrophenyl 4-cyanobenzoate]
50 uM_231_sol_in vitro
  isoTOP-ABPP ratio, lysine Q13148_K114: 20.0

## O=C(CCc1ccc2c(c1)OCO2)Oc1ccc([N+](=O)[O-])cc1[N+](=O)[O-] [fragment 45, 2,4-Dinitrophenyl 3-(benzo[d][1,3]dioxol-5-yl)propanoate]
50 uM_231_sol_in vitro
  isoTOP-ABPP ratio, lysine Q13148_K114: 20.0

## COC(=O)NC(=NC(=O)OCC1c2ccccc2-c2ccccc21)n1cccn1 [fragment 49, N-Methoxycarbonyl-N′-9-fluorenylmethoxycarbonyl-pyrazole-1-carboxamidine]
100 uM_231_sol_in vitro
  isoTOP-ABPP ratio, lysine Q13148_K114: 20.0

## CC(C)(C)OC(=O)N=C(NC(=O)OC(C)(C)C)n1cccn1 [fragment 50, reference compound]
100 uM_231_sol_in vitro
  isoTOP-ABPP ratio, lysine Q13148_K114: 1.2

From patent US20210255193A1, “LYSINE REACTIVE PROBES AND USES THEREOF” (The Scripps Research Institute, priority 2017, published 2021)
